Several values for one entry are separate records, joined by “and”; a condition that tells them apart may be missing. Identical values can stand only once. Like-named read-outs stand apart in the source and are kept apart here.
Legend:
[1] = Plasma pharmacokinetics of SU5416 and metabolites in Phase I patients (HPLC UV); assay type: in vivo, human; conditions: twice weekly i.v. infusion; for clearance: read-out: CL (observed) (converted); for half-life: read-out: T1/2λz (converted); for Vd: read-out: Vz (observed)
Description: Samples were taken prior to treatment infusion, 15 min into the infusion, at completion of the infusion and then at 5, 10, 20, 30, 45, 60, 120 and 240 min following the infusion. […] At the designated times, 4.0 ml of blood were collected into a lithium heparin tube, gently inverted and placed on ice to maintain the sample at 2–8°C. All samples were immediately centrifuged at 6000 r.p.m. at 4°C for 10 min, the supernatant divided between two 1.5 ml Nalgene cryovials and snap frozen in liquid nitrogen. Separated plasma samples were subsequently stored at −70°C until analysis.
Pharmacokinetic analysis was performed using a fully validated HPLC UV method ([Stopeck et al, 2002]). Plasma samples, standards (25–2000 ng ml^−1) and quality controls spiked with internal standards were extracted with acetonitrile. Following centrifugation, drying and reconstitution in 200 μl mobile phase, 20 μl were analysed by HPLC UV. Chromatography was carried out using a C18 analytical column, with a gradient mobile phase containing acetonitrile and 10 mM ammonium formate at pH 2.6. The flow rate was 0.8 ml min^−1 and the run-time 21 min. Detection was via UV absorption at a wavelength of 440 nm. The accuracy of the assay, reflected in relative error of measured concentration to theoretical (prepared) concentrations, was between 0.9 and 5.6% for all quality control samples.
Pharmacokinetic parameters were evaluated using WinNonLin Software®.

[2] = Phase I safety and tolerability, twice weekly intravenous infusion
[3] = human, plasma, iv, 85 mg m^−2, individual patients, dose 85 mg m^−2, cycle 2inj8
[4] = human, plasma, iv, 110 mg m^−2, individual patients, dose 110 mg m^−2, cycle 1inj2
[5] = human, plasma, iv, 110 mg m^−2, individual patients, dose 110 mg m^−2, cycle 1inj8
[6] = individual patients, dose 48 mg m^−2, cycle 1inj2
[7] = individual patients, dose 48 mg m^−2, cycle 1inj8
[8] = individual patients, dose 65 mg m^−2, cycle 1inj2
[9] = individual patients, dose 65 mg m^−2, cycle 1inj8
[10] = individual patients, dose 85 mg m^−2, cycle 1inj2
[11] = individual patients, dose 85 mg m^−2, cycle 1inj8
[12] = individual patients, dose 110 mg m^−2, cycle 1inj2
[13] = individual patients, dose 145 mg m^−2, cycle 1inj2
[14] = individual patients, dose 145 mg m^−2, cycle 1inj8
[15] = individual patients, dose 145 → 190 mg m^−2, cycle 1inj2
[16] = individual patients, dose 145 → 190 mg m^−2, cycle 1inj8

**Q.** Which results are given for Cc1cc(C)c(/C=C2\C(=O)Nc3ccccc32)[nH]1 [SU5416, Z-3-[(2,4-dimethylpyrrol-5-yl)methylidenyl]-2-indolinone]?
**A.** AUC(0-t) [1, 3]: 1620 ng·h/mL; clearance [1, 3]: 1470 mL/min; Cmax ([1]; human, plasma, iv, 85 mg m^−2, individual patients, dose 85 mg m^−2, cycle 2inj8, read-out: Cmax): 2800 ng/mL; half-life [1, 3]: 44.4 min; Vd [1, 3]: 94 L; AUC(0-t) [1, 4]: 4020 ng·h/mL; clearance [1, 4]: 767 mL/min; Cmax ([1]; human, plasma, iv, 110 mg m^−2, individual patients, dose 110 mg m^−2, cycle 1inj2, read-out: Cmax): 3510 ng/mL; half-life [1, 4]: 37.2 min; Vd [1, 4]: 41 L; AUC(0-t) [1, 5]: 3800 ng·h/mL; clearance [1, 5]: 1400 mL/min; Cmax ([1]; human, plasma, iv, 110 mg m^−2, individual patients, dose 110 mg m^−2, cycle 1inj8, read-out: Cmax): 3580 ng/mL; half-life [1, 5]: 37.2 min; Vd [1, 5]: 75 L; AUClast [1, 6]: 463 ng·h/mL and 848 ng·h/mL and 1143 ng·h/mL; CL (observed) [1, 6]: 181 L/h and 94 L/h and 83 L/h; Cmax [1, 6]: 2724 ng/mL and 2253 ng/mL; T1/2λz [1, 6]: 30.6 min and 36.6 min; Vz (observed) [1, 6]: 72 L; CL (observed) [1, 7]: 115 L/h; Cmax [1, 7]: 1289 ng/mL; T1/2λz [1, 7]: 25.2 min; AUClast [1, 8]: 2510 ng·h/mL; CL (observed) [1, 8]: 74 L/h; Cmax [1, 8]: 2968 ng/mL; T1/2λz [1, 8]: 49.2 min; Vz (observed) [1, 8]: 88 L; AUClast [1, 9]: 2068 ng·h/mL; CL (observed) [1, 9]: 89 L/h; Cmax [1, 9]: 2914 ng/mL; T1/2λz [1, 9]: 39 min; Vz (observed) [1, 9]: 84 L; AUClast [1, 10]: 1151 ng·h/mL and 2094 ng·h/mL; CL (observed) [1, 10]: 133 L/h and 102 L/h; Cmax [1, 10]: 1624 ng/mL and 2057 ng/mL; T1/2λz [1, 10]: 42.6 min; Vz (observed) [1, 10]: 45 L and 136 L and 104 L; AUClast [1, 11]: 1250 ng·h/mL; Cmax [1, 11]: 3672 ng/mL and 1354 ng/mL; T1/2λz [1, 11]: 36 min and 123 min; Vz (observed) [1, 11]: 52 L and 447 L; AUClast [1, 12]: 2345 ng·h/mL and 3842 ng·h/mL; CL (observed) [1, 12]: 70 L/h and 83 L/h; Cmax [1, 12]: 2750 ng/mL and 3237 ng/mL; T1/2λz [1, 12]: 41.4 min and 33 min; Vz (observed) [1, 12]: 70 L and 66 L; AUClast [1, 13]: 4946 ng·h/mL and 3471 ng·h/mL and 2021 ng·h/mL; CL (observed) [1, 13]: 55 L/h and 92 L/h and 150 L/h; Cmax [1, 13]: 4851 ng/mL and 2869 ng/mL and 1217 ng/mL; T1/2λz [1, 13]: 53.4 min and 42.6 min; Vz (observed) [1, 13]: 119 L and 153 L; AUClast [1, 14]: 2349 ng·h/mL; CL (observed) [1, 14]: 62 L/h and 169 L/h; Cmax [1, 14]: 2080 ng/mL; T1/2λz [1, 14]: 40.2 min; Vz (observed) [1, 14]: 51 L and 164 L; AUClast [1, 15]: 3389 ng·h/mL and 1928 ng·h/mL and 3683 ng·h/mL and 3397 ng·h/mL and 2621 ng·h/mL and 2870 ng·h/mL and 2465 ng·h/mL and 1267 ng·h/mL and 4094 ng·h/mL and 1578 ng·h/mL; Cmax [1, 15]: 4159 ng/mL and 2474 ng/mL and 2961 ng/mL and 2774 ng/mL and 2894 ng/mL and 2795 ng/mL and 3202 ng/mL and 1177 ng/mL and 4508 ng/mL and 2625 ng/mL; T1/2λz [1, 15]: 40.8 min and 30 min and 47.4 min and 39.6 min and 81.6 min and 40.2 min and 69 min and 22.8 min and 29.4 min and 41.4 min; Vz (observed) [1, 15]: 63 L and 70 L and 85 L and 196 L and 97 L and 119 L and 118 L and 39 L and 106 L; Cmax [1, 16]: 3370 ng/mL and 2274 ng/mL and 2066 ng/mL and 2161 ng/mL and 493 ng/mL and 4283 ng/mL; Vz (observed) [1, 16]: 57 L and 74 L and 176 L and 488 L and 214 L and 46 L; pain or burning discomfort in tumour-related sites shortly after infusion, patients ([2]; dose expansion cohort): three; dysphonia, patients ([2]; therapy for 6 weeks or more, reversible over several months): Two; Venous thrombotic events, patients ([2]; thrombosis of the inferior vena cava and a pulmonary embolism, differing dose levels): two; recommended dose for future study ([2]; twice weekly intravenous infusion): 145 mg m^−2; maximum-tolerated dose ([2]; twice weekly intravenous infusion, 48 to 190 mg m^−2): not identified

From PMC2361651 (British Journal of Cancer, 2005)
